Laboratory results from patent US8207314B2, “Tumor antigens for prevention and/or treatment of cancer” (Sanofi Pasteur Limited, priority 2003, dated 2012).

How the values were obtained:
[1] = system: peptide-loaded human T2 lymphoma cell targets; experiment: CTL killing of BFA4 peptide-pulsed target cells; assay type: cell-based; settings: single BFA4 peptides, listing = result
[2] = system: targets pulsed with corresponding peptide pools; experiment: CTL killing of targets pulsed with BFY3 peptide pools or peptides; assay type: cell-based, human
Description: (§1) In addition to ELISPOT analysis, human T cells activated by BFY3 peptides were assayed for reactivity. Ten pools of peptides consisting often peptides per pool used to generate CTL. These 10 groups of effectors used to kill targets pulsed with corresponding peptide pools. […]

[3] = system: Human PBMC from an HLA-A2.1 positive donor; experiment: IFN-γ ELISPOT of human T cells activated with BFY3 peptide pools and deconvolution to single peptides; assay type: cell-based; settings: BFY3 nonamer peptides; listing = result
Description: Human PBMC from an HLA-A2.1 positive donor designated AP31 were activated with autologous dendritic cells pulsed with different pools of 9-mer peptides from the BFY3 antigen (see Table I for list). The activated T cells were re-stimulated after 12 days with activated autologous CD40-ligand-activated B cells pulsed with the same respective peptide pools for another 8 to 10 days. This secondary activation was repeated 2 more time for a total of 4 stimulations. The activated T cells were isolated after the 4th stimulation and subjected to ELISPOT analysis for human IFN-γ production against their respective BFY3 peptide pools as shown. The blue bars show reactivity against the BFY3 peptide pools and the red bars are for an HLA-A2.1-binding HIV peptide as a negative control. Standard deviations are indicated. The experiment was repeated 2 times on activated T cells from different rounds of peptide stimulation with the similar results (FIG. 17A).
The BFY3 peptide pools were deconvoluted and studied in IFN-γ ELISPOT assays. Stimulation was performed as described earlier for the other antigens described. After 4 rounds of stimulation, the T cells from each culture were harvested and subjected to ELISPOT analysis for IFN-γ production with each individual peptide in each pool. FIG. 17B illustrates individual peptide reactivity for each specific pool.

[4] = system: CosA2 cells transfected with BFY3; experiment: CTL killing of BFY3-transfected cells; assay type: cell-based; settings: CTL generated from BFY3 peptide pools
Description: as §1

[5] = system: BFA4; experiment: Rabbit antibody titers after immunization with BFA4 22-mer peptides; assay type: in vivo
Description: For monitoring purposes, rabbit anti-BFA4 polyclonal antibodies were generated. Six peptides (22-mers) were designed and synthesized to elicit antibody response to BFA4, as shown below:
Rabbits were immunized with the peptides, serum was isolated, and the following antibody titers were observed: […]

[6] = system: peptide-loaded T2 cells; experiment: 51Cr-release CTL assay with BFA5 peptide-activated human T cells; assay type: cell-based
Description: In addition to ELISPOT analysis, human T cells activated by BFA5 peptides were assayed to determine their ability to function as CTL. The cells were activated using peptide-pulsed dendritic cells followed by CD40 ligand-activated B cells (5 rounds of stimulation). The experiment shown was performed with isolated PBMC from HLA-A*0201^+ donor AP31. Isolated T cells were tested in ^51Cr-release assays using peptide-loaded T2 cells. The % specific lysis at a 10:1, 5:1, and 1:1 T-cell to target ratio is shown for T2 cells pulsed with either pools of BFA5/NYBR-1 peptides or with individual peptides. […] CTL activity (percent specific lysis) induced by the control HIV peptide was generally <10%. Similar results were obtained with another PBMC donor expressing HLA-A*0201 (AP10). […]

[7] = system: HLA-A*0201 human T cells; experiment: IFN-γ ELISPOT of human T cells activated with BFA5/NYBR-1 peptide pools and single peptides; assay type: cell-based; settings: for BFA5 peptides eliciting high IFN-γ release (>200 spots/100,000 cells): listing = result
Description: A library of 100 peptides from the BFA5/NYBR-1 coding sequence that are predicted to be medium to high binders to HLA-A*0201 were designed using Rammensee and Parker algorithms. The library was sub-divided into 10 pools of ten peptides (see Table XI), and each pool was used to activate 10 different T cell cultures after pulsing peptides on to mature autologous dendritic cells.
ELISPOT analysis was performed on human T-cell cultures activated through four rounds of stimulation with each pool of BFA5 peptides. In FIG. 13A, the numbers under the X-axis indicate the number of each peptide pool (1-10). Reactivity against a CMV pp65 peptide, and a Flu matrix peptide were used as positive controls for T-cell activation in the experiments. Each experiment was performed with PBMC and dendritic cells from a single HLA-A*0201^+ donor designated as “AP10”. […] Similar results were obtained for both BFA4 and BFA5/NYBR-1 with a different HLA-A*0201. […] Cultures having a reading of 600 spots have more than this number of spots.
A large number of the BFA5 peptide pools of are reactive as shown by the high levels of IFN-γ production (FIG. 13A). Each reactive peptide pool was then separated into individual peptides and analyzed for immunogenicity using ELISPOT analysis to isolate single reactive BFA5 peptides. […] Similar results were obtained in two independent PBMC culture experiments.

[8] = first-listed rabbit of the pair
[9] = second-listed rabbit of the pair

Sequence: MLAFSFPAA [CLP 2427]
- Strong CTL Killing (listed as highly immunoreactive peptide) [1]: MLAFSFPAA

Sequence: MLWKLTDNI [CLP 3320]
- Peptides eliciting CTL activity (peptide pulsed targets) ([2]; BFY3 nonamer peptides, listing = result): MLWKLTDNI
- recognition of single peptides by CTL ([2]; BFY3 peptides, peptide-pulsed targets): strongly recognized
- Peptides eliciting strong IFN-γ ELISPOT activity [3]: MLWKLTDNI
- killing of CosA2 cells transfected with BFY3 by CTL [4]: responsible for this cytotoxicity

Sequence: MVRKKNPPLRNVASEGEGQILE [CLP2589]
- Titer (Bleed 2) [5, 8]: 800000
- Titer (Final Bleed) [5, 8]: 2560000, 2560000
- Titer (Bleed 2) [5, 9]: 1600000
- Titer (Final Bleed) [5, 9]: 2560000, 2560000

Sequence: NACGLYQKL [CLP 2495]
- Strong CTL Killing (listed as highly immunoreactive peptide) [1]: NACGLYQKL

Sequence: NGEQIIRRRTRKRLNPEALQAE [CLP2593]
- Titer (Bleed 2) [5, 8]: 3200000
- Titer (Final Bleed) [5, 8]: 2560000
- Titer (Bleed 2) [5, 9]: 51200
- Titer (Final Bleed) [5, 9]: 160000

Sequence: NHLQGSDGQQSVKESKEHSCTK [CLP2592]
- Titer (Bleed 2) [5, 8]: 25600
- Titer (Final Bleed) [5, 8]: 80000
- Titer (Bleed 2) [5, 9]: 12800
- Titer (Final Bleed) [5, 9]: 40000

Sequence: NLFGGVVNP [CLP 3351]
- Peptides eliciting strong IFN-γ ELISPOT activity [3]: NLFGGVVNP

Sequence: NMLAFSFPA [CLP 2426]
- Strong CTL Killing (listed as highly immunoreactive peptide) [1]: NMLAFSFPA

Sequence: NVTLLTSLV [CLP 3380]
- Peptides eliciting strong IFN-γ ELISPOT activity [3]: NVTLLTSLV

Sequence: RLNPEALQA [CLP 2499]
- Strong CTL Killing (listed as highly immunoreactive peptide) [1]: RLNPEALQA

Sequence: RNMLAFSFP [CLP 2425]
- Strong CTL Killing (listed as highly immunoreactive peptide) [1]: RNMLAFSFP

Sequence: SCLTHFNLI [CLP 3403]
- Peptides eliciting strong IFN-γ ELISPOT activity [3]: SCLTHFNLI

Sequence: SHGFGSPAV [CLP 3407]
- Peptides eliciting strong IFN-γ ELISPOT activity [3]: SHGFGSPAV

Sequence: SLPHAIEEV [CLP 3343]
- Peptides eliciting strong IFN-γ ELISPOT activity [3]: SLPHAIEEV

Sequence: SPKATEETGQAQSGQANCQGLS [CLP2590]
- Titer (Bleed 2) [5, 8]: 12800
- Titer (Final Bleed) [5, 8]: 40000, 40000
- Titer (Bleed 2) [5, 9]: 6400
- Titer (Final Bleed) [5, 9]: 40000, 40000

Sequence: SQYSGQLKV [CLP 3015]
- CTL activity in T cells from both donors ([6]; donors AP10 and AP31): induce
- IFN-γ secretion in T cells from both donors ([7]; donors AP10 and AP31): induce

Sequence: VAKPSEKNSNKSIPALQSSDSG [CLP2591]
- Titer (Bleed 2) [5, 8]: 400000, 400000
- Titer (Final Bleed) [5, 8]: 320000, 320000
- Titer (Bleed 2) [5, 9]: 400000, 400000
- Titer (Final Bleed) [5, 9]: 320000, 320000

Sequence: YLLHENQML [CLP 2997]
- BFA5 peptides inducing CTL lysis of pulsed cells ([6]; Donor AP10, listing = result): YLLHENCML
- BFA5 peptides eliciting high IFN-γ release (>200 spots/100,000 cells) ([7]; Donor AP10): YLLHENCML
- BFA5 peptides eliciting high IFN-γ release (>200 spots/100,000 cells) ([7]; Donor AP31): YLLHENCML

Sequence: YLTEALKAM [CLP 3415]
- Peptides eliciting strong IFN-γ ELISPOT activity [3]: YLTEALKAM

Sequence: YVPYPTFNL [CLP 2509]
- Strong CTL Killing (listed as highly immunoreactive peptide) [1]: YVPYPTFNL
